# Source: patent US7744921B2, “Liposome loading with metal ions” (Celator Pharmaceuticals, Inc., priority 2001, dated 2010)
# Assays:
# [1] = Precipitation of MnSO4 in pH 7.4 HEPES buffer (metal compatible solution); format: physicochemical; conditions: 300 mM solution of MnSO4 in pH 7.4 HEPES buffer
# Experimental: Preferably, the metal solution should be clear and soluble, free of aggregation, precipitation or flocculation for at least about 4 hours. By way of example, a 300 mM solution of MnSO4 in pH 7.4 HEPES buffer as described in Cheung, et al. [supra] is not a metal compatible solution as it produces an obvious brown precipitate of Mn(OH)2 comprising approximately 6-7 molar % of the manganese added to the solution.
# An alternative preferred method of determining whether a metal solution is metal compatible is by centrifugation (e.g. 100 ml sample at 1000 rpm for 10 minutes) to collect any precipitate, measuring the amount of precipitate collected and determining the proportion of the metal added to the original solution present in the precipitate. The amount of metal in the precipitate should not exceed about 1 molar % of the amount of metal added to the original solution.
# [2] = Effect of buffer composition on precipitation of metal ion (20 mM histidine, triethanolamine to pH 7.4, visual inspection); format: physicochemical; parameters: key: ppt: represents that the formation of a precipitate occurred after the addition of triethanolamine within a time course of 10 minutes; no ppt: represents that the formation of a precipitate did not occur after addition of triethanolamine to achieve a pH of 7.4 and within a time course of 10 minutes; conditions: pH 7.4, 10 minutes
# [3] = Active (metal-based, citrate or ionophore) loading of drug into liposomes; spin column, drug-to-lipid ratio; format: physicochemical; conditions: for loading efficiency: 300 mM MnSO4, 37° C.
# Experimental: Lipids were dissolved in chloroform solution and subsequently dried under a stream of nitrogen gas and placed in a vacuum pump to remove solvent. Unless otherwise specified, trace levels of radioactive lipid 3H-CHE were added to quantify lipid during the formulation process. The resulting lipid film was placed under high vacuum for a minimum of 2 hours. The lipid film was hydrated in the solution indicated to form multilamellar vesicles (MLVs). The resulting preparation was extruded 10 times through stacked polycarbonate filters with an extrusion apparatus (Lipex Biomembranes, Vancouver, BC) to achieve a mean liposome size between 80 and 150 nm. All constituent lipids of liposomes are reported in mole %.
# At various time points after initiation of drug loading, aliquots were removed and passed through a Sephadex G-50 spin column to separate free from encapsulated drug. To a specified volume of eluant, Triton X-100 or N-ocyl beta-D-glucopyranoside (OGP) was added to solubilize the liposomes. Following addition of detergent, the mixture was heated to the cloud point of the detergent and allowed to cool to room temperature before measurement of the absorbance or fluorescence. Drug concentrations were calculated by comparison to a standard curve.
# In order to determine whether copper loading of irinotecan in the absence of a pH gradient could occur using a cholesterol-free formulation, DSPC/DSPG (80:20 mole ratio) liposomes containing copper(II) gluconate were prepared with an external and internal pH of 7.4. […] The lipid films were hydrated in 100 mM Cu(II) gluconate adjusted to pH 7.4 with triethanolamine (TEA) and extruded at 70° C. […] Irinotecan was added to the liposome preparation at a 0.1:1 drug-to-lipid mole ratio and incubated at 50° C. The extent of drug loading was determined as described in the methods by measuring absorbance at 370 nm and lipid levels were determined by liquid scintillation counting.
# Loading of daunorubicin into DSPC/DSPG (90:10 mole ratio) liposomes containing encapsulated CuSO4 buffered to pH 7.4 was also investigated. […] A solution of 150 mM CuSO4, 20 mM histidine (adjusted to pH 7.4 using TEA), was employed as the hydration medium and MLVs were extruded at 70° C. […] Daunorubicin was loaded at a 0.1:1 drug/lipid weight ratio. A drug-to-lipid ratio at various time points during loading was determined by measuring absorbance at 480 nm after solubilization in detergent to quantify daunorubicin as described; lipid levels were determined by liquid scintillation counting.
# The liposomes were prepared as described in the methods by hydrating lipid films in a solution of 100 mM copper(II) gluconate adjusted to pH 7.4 with TEA. Liposomes were extruded at 65° C. and the external buffer of the liposomes was exchanged to SHE, pH 7.4 by tangential flow dialysis. Liposomes were incubated with irinotecan at a 0.1:1 drug-to-lipid weight ratio at 50° C. and the extent of drug loading was determined as described by measuring absorbance at 370 nm after solubilization by detergent.
# In addition to copper loading, loading of drug using MnSO4 containing liposomes in the absence of a pH gradient was also investigated. […] Lipids films were prepared as described and hydrated in 300 mM MnSO4 buffered to pH 7.4 with 20 mM imidazole (initial pH was adjusted to 7.4 with concentrated HCl) and extrusion was carried out at 70° C. The samples were run down a Sephadex G-50 column to exchange the exterior buffer with SHE, pH 7.4.
# [4] = as above; format: physicochemical; conditions: for sequential loading of two drugs into a single liposome (in words): 300 mM CuSO4, 60° C., irinotecan 0.2:1 then doxorubicin 0.15:1 mole ratio
# [5] = Drug-to-lipid ratio of passively encapsulated first drug before/after loading of second drug; conditions: DSPC/DSPG (80:20)
# Experimental: Prior to measurement of absorbance, liposomes were solubilized in a solution containing Triton X-100.
# Samples were extruded and external buffers exchanged into SHE, pH 7.4, using a hand-held tangential flow dialysis column. […] Atomic absorption spectrometry (AA) was used to determine carboplatin concentrations and absorbance at 370 nm was measured to determine irinotecan concentrations.
# [6] = 150 mM metal in 20 mM histidine
# [7] = 300 mM metal in 20 mM histidine
# [8] = DPPC/DSPE-PEG2000 (95:5), pH gradient citrate loading (300 mM citrate, pH 4.0), 37° C.
compound,measurement,setting,value
"O=S(=O)([O-])[O-].[Mn+2] [MnSO4 in pH 7.4 HEPES buffer, MnSO4]",proportion of added manganese in Mn(OH)2 precipitate,[1],6-7 molar %
Cobalt,precipitation after addition of triethanolamine: Chloride,[2]; [6],no ppt
same,precipitation after addition of triethanolamine: Sulfate,[2]; [6],no ppt
same,precipitation after addition of triethanolamine: Chloride,[2]; [7],no ppt
same,precipitation after addition of triethanolamine: Sulfate,[2]; [7],no ppt
Zinc,precipitation after addition of triethanolamine: Chloride,[2]; [6],ppt
same,precipitation after addition of triethanolamine: Sulfate,[2]; [6],ppt
same,precipitation after addition of triethanolamine: Chloride,[2]; [7],ppt
same,precipitation after addition of triethanolamine: Sulfate,[2]; [7],ppt
[Mn+2] [Manganese],precipitation after addition of triethanolamine: Chloride,[2]; [6],ppt
same,precipitation after addition of triethanolamine: Sulfate,[2]; [6],no ppt
same,precipitation after addition of triethanolamine: Chloride,[2]; [7],ppt
same,precipitation after addition of triethanolamine: Sulfate,[2]; [7],no ppt
CCc1c2c(nc3ccc(OC(=O)N4CCC(N5CCCCC5)CC4)cc13)-c1cc3c(c(=O)n1C2)COC(=O)[C@]3(O)CC [irinotecan],time to almost complete loading,"[3]; DPPC/Chol (55:45), 100 mM Cu(II) gluconate pH 7.4 internal, SHE pH 7.4 external, no pH gradient, 50° C., weight ratio 0.1:1",about 60 minutes
same,loading complete,"[3]; DSPC/DSPE-PEG2000 (95:5), 300 mM MnSO4, SHE pH 7.4, 60° C., weight ratio 0.1:1, 30-minute time point",10%
same,time to essentially complete loading,"[3]; DSPC/DSPG (80:20) liposomes, 100 mM Cu(II) gluconate pH 7.4 (TEA) internal, SHE pH 7.4 external, no pH gradient, 50° C., drug-to-lipid mole ratio 0.1:1",≤ 5 min
same,loading after chelation column versus after exchange into EDTA-containing solution (in words),"[3]; DSPC/DSPG (80:20), 150 mM copper gluconate pH 7.4, 37, 50 and 60° C., weight ratio 0.1:1",comparable
same,sequential loading of two drugs into a single liposome (in words),[4]; DSPC/Chol (55:45),efficiently loaded
same,encapsulation,"[4]; DSPC/Chol (55:45), 300 mM CuSO4, SHE pH 7.5, drug-to-lipid mole ratio 0.2:1, 60° C., loaded first",approximately 100%
same,loading,"[4]; DSPC/DSPE-PEG2000 (95:5), 300 mM CuSO4, SHE pH 7.4, 60° C., weight ratio 0.1:1, within 5 minutes",greater than 95%
same,loading (in words),"[4]; DSPC/DSPG (80:20), 150 mM CuSO4 pH 7.4, exchanged into solution not containing a chelating agent, 37, 50 and 60° C., weight ratio 0.1:1",reduced rate
same,loading (in words),"[4]; DSPC/DSPG (80:20), 150 mM CuSO4 pH 7.4, passed through Chelex-100 column, 37, 50 and 60° C., weight ratio 0.1:1",enhanced
same,loading (in words),"[4]; FUDR-containing DSPC/Chol/DSPG (70:10:20), 100 mM Cu(II) gluconate, 220 mM TEA pH 7.4, external HBS or sucrose/HEPES pH 7.4, 50° C., mole ratio 0.1:1",efficiently loads
same,loading (in words),"[4]; FUDR-containing DSPC/DSPG (85:15), 100 mM Cu(II) gluconate, 220 mM TEA pH 7.4, external 300 mM sucrose, 20 mM HEPES pH 7.4, 50° C., mole ratio 0.1:1",efficient loading of the drug occurred throughout the time course of the experiment
same,loading (in words),"[4]; carboplatin-containing DSPC/DSPG (80:20), 150 mM CuSO4 pH 7.4, SHE pH 7.4 external, 60° C., weight ratio 0.1:1",loads to a high degree
COc1cccc2c1C(=O)c1c(O)c3c(c(O)c1C2=O)C[C@@](O)(C(=O)CO)C[C@@H]3O[C@H]1C[C@H](N)[C@@H](O)[C@H](C)O1 [epirubicin],loading (in words),"[3]; DSPC/DSPE-PEG2000 (95:5), 300 mM MnSO4, 20 mM imidazole pH 7.4 internal, SHE pH 7.4 external, no pH gradient, 60° C., weight ratio 0.2:1",efficient encapsulation of drug occurred at each time point measured
same,drug accumulation,"[4]; DSPC/DSPE-PEG2000 (95:5), 300 mM CuSO4, SHE pH 7.4, weight ratio 0.2:1, 60° C., within 5 minutes",> 95%
CC[C@@]1(O)C(=O)OCc2c1cc1n(c2=O)Cc2cc3c(CN(C)C)c(O)ccc3nc2-1 [topotecan],loading complete,"[4]; DSPC/Chol (55:45), 300 mM CuSO4, SHE pH 7.4, weight ratio 0.1:1, 37° C., within 30 minutes",> 95%
COc1cccc2c1C(=O)c1c(O)c3c(c(O)c1C2=O)C[C@@](O)(C(=O)CO)C[C@@H]3O[C@H]1C[C@H](N)[C@H](O)[C@H](C)O1 [doxorubicin],time to essentially complete loading,"[3]; DMPC/Chol (55:45), 300 mM citrate pH 3.5, external HBS, 60° C., weight ratio 0.2:1",≤ 5 min
same,loading efficiency,"[3]; DPPC/DSPE-PEG2000 (95:5), initial drug/lipid weight ratio 0.1:1",> 95%
same,loading efficiency,"[3]; DPPC/DSPE-PEG2000 (95:5), initial drug/lipid weight ratio 0.2:1",> 90%
same,encapsulation efficiency as doxorubicin/lipid weight ratio increased from 0.1 to 0.3 (in words),[3]; [8],substantial reduction in encapsulation efficiency
same,added drug encapsulated,"[3]; DSPC/Chol (55:45), 300 mM CoCl2, SHE pH 7.5, weight ratio 0.1:1, 60° C., within 10 minutes",> 90%
same,leakage during vincristine encapsulation (in words),"[3]; DSPC/Chol (55:45), 300 mM MnSO4, doxorubicin preloaded at 0.2:1 wt/wt, vincristine loading at 50° C.",no significant leakage
same,accumulation relative to MnSO4 and citrate loading (in words),"[4]; DMPC/Chol (55:45), 300 mM MnCl2, external SHE pH 7.5, 60° C., weight ratio 0.2:1",less complete
same,time to essentially complete loading,"[4]; DMPC/Chol (55:45), 300 mM MnSO4, external SHE pH 7.5, 60° C., weight ratio 0.2:1",≤ 5 min
same,loading efficiency,"[4]; DPPC/DSPE-PEG2000 (95:5), 300 mM MnSO4, 37° C., initial drug/lipid weight ratio 0.3:1",> 80%
same,maximum drug-to-lipid weight ratio achieved,[4]; [8],< 0.075
same,sequential loading of two drugs into a single liposome (in words),[4]; DSPC/Chol (55:45),efficiently loaded
[Cd] [Cadmium],precipitation after addition of triethanolamine: Chloride,[2]; [6],ppt
same,precipitation after addition of triethanolamine: Sulfate,[2]; [6],no ppt
same,precipitation after addition of triethanolamine: Chloride,[2]; [7],ppt
same,precipitation after addition of triethanolamine: Sulfate,[2]; [7],no ppt
Copper,precipitation after addition of triethanolamine: Chloride,[2]; [6],no ppt
same,precipitation after addition of triethanolamine: Sulfate,[2]; [6],no ppt
same,precipitation after addition of triethanolamine: Chloride,[2]; [7],no ppt
same,precipitation after addition of triethanolamine: Nitrate,[2]; [7],no ppt
same,precipitation after addition of triethanolamine: Sulfate,[2]; [7],no ppt
N.N.O=C([O-])C1(C(=O)[O-])CCC1.[Pt+2] [carboplatin],carboplatin drug-to-lipid weight ratio after loading of irinotecan,"[5]; 150 mM CuSO4 pH 7.4, irinotecan loaded at 60° C.",0.025
same,initial carboplatin drug-to-lipid weight ratio,"[5]; 150 mM CuSO4 pH 7.4, passively encapsulated",0.030
CC[C@]1(O)C[C@H]2CN(CCc3c([nH]c4ccccc34)[C@@](C(=O)OC)(c3cc4c(cc3OC)N(C=O)[C@H]3[C@@](O)(C(=O)OC)[C@H](OC(C)=O)[C@]5(CC)C=CCN6CC[C@]43[C@@H]65)C2)C1 [vincristine],incubation time to near maximum encapsulation,"[3]; DSPC/Chol (55:45), 300 mM MnSO4, preloaded with doxorubicin, A23187 ionophore-mediated loading, 50° C., weight ratio 0.05:1",40 min
